# Test results from patent US10781224B2, “Bis(oxymethyl)phosphinic acid and biogenic metal salts thereof as regulators of plant growth and development” (priority 2016, dated 2020).
# Assays:
# Assay type in all cases: in vivo
# [1] = test system: winter wheat (Vershin variety); assay: Winter wheat seed treatment with BHMPA salts: germinating power (length and mass of roots and sprouts)
# Method in brief: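 Seeds (50 per Petri dish on two layers of filter paper) soaked 1 h in BHMPA or its Ca, Mg, Na, Co, Mn, Cu or Zn salts at 1·10^−6-1·10^−12%, with water controls. Germination energy read on day 4, germination on day 8 (wheat) or day 7 (rice, corn), as % means of four replicates. Germinating power taken as root and sprout length plus wet and dry mass per 100 seedlings.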
# [2] = test system: corn (Krasnodar 385 MV variety); assay: Corn seed treatment with BHMPA salts: germination energy and germination rate
# Method in brief: (§1)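 Corn, winter wheat and rice seeds (50 per dish, on filter paper) were soaked for 1 h in BHMPA or its metal salts at 1·10^−6-1·10^−12%, with water as control. Germination energy was read on day 4 and germination rate on day 8 for wheat and day 7 for rice and corn, following GOST 12038-84, as the mean of four replicates.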
# rice (Diamant variety) = assay: Rice seed treatment with BHMPA salts: germination energy and germination rate; conditions: for Germination energy / Germination rate: rice
# Method in brief: as §1
# [3] = comparative study, 1·10^−9% solution
# [4] = comparative study vs Melaphen, 1·10^−8% solution
# [5] = rice seed treatment, solution 1 · 10^−10%
substance,measurement,setting,value
Copper BHMPA Salt [Cu-salt],"Mass, dry, root, + % to control",[1]; 1·10^−11% solution,7%
same,"Mass, dry, sprout",[1]; 1·10^−11% solution,0.46 g/100 plantlings
same,"Mass, dry, sprout, + % to control",[1]; 1·10^−11% solution,24%
same,"Mass, wet, root",[1]; 1·10^−11% solution,3.44 g/100 plantlings
same,"Mass, wet, root, + % to control",[1]; 1·10^−11% solution,11%
same,"Mass, wet, sprout",[1]; 1·10^−11% solution,3.20 g/100 plantlings
same,"Mass, wet, sprout, + % to control",[1]; 1·10^−11% solution,20%
same,"Length, root",[1]; 1·10^−12% solution,4.8 cm
same,"Length, root, + % to control",[1]; 1·10^−12% solution,0%
same,"Length, sprout",[1]; 1·10^−12% solution,4.0 cm
same,"Length, sprout, + % to control",[1]; 1·10^−12% solution,0%
same,"Mass, dry, root",[1]; 1·10^−12% solution,0.41 g/100 plantlings
same,"Mass, dry, root, + % to control",[1]; 1·10^−12% solution,−2%
same,"Mass, dry, sprout",[1]; 1·10^−12% solution,0.42 g/100 plantlings
same,"Mass, dry, sprout, + % to control",[1]; 1·10^−12% solution,13.5%
same,"Mass, wet, root",[1]; 1·10^−12% solution,3.01 g/100 plantlings
same,"Mass, wet, root, + % to control",[1]; 1·10^−12% solution,7%
same,"Mass, wet, sprout",[1]; 1·10^−12% solution,2.92 g/100 plantlings
same,"Mass, wet, sprout, + % to control",[1]; 1·10^−12% solution,10%
same,"Length, root",[1]; [3],10.9 cm
same,"Length, root, + % to control",[1]; [3],25%
same,"Length, sprout",[1]; [3],7.2 cm
same,"Length, sprout, + % to control",[1]; [3],16%
same,"Mass, dry, root",[1]; [3],0.67 g/100 plantlings
same,"Mass, dry, root, + % to control",[1]; [3],8%
same,"Mass, dry, sprout",[1]; [3],0.59 g/100 plantlings
same,"Mass, dry, sprout, + % to control",[1]; [3],16%
same,"Mass, wet, root",[1]; [3],5.45 g/100 plantlings
same,"Mass, wet, root, + % to control",[1]; [3],51%
same,"Mass, wet, sprout",[1]; [3],5.00 g/100 plantlings
same,"Mass, wet, sprout, + % to control",[1]; [3],26%
same,Germination energy,[2]; 1·10^−6% solution,80.0%
same,Germination rate,[2]; 1·10^−6% solution,82.5%
same,Germination energy,[2]; 1·10^−7% solution,82.3%
same,Germination rate,[2]; 1·10^−7% solution,85.0%
same,Germination energy,[2]; 1·10^−8% solution,91.8%
same,Germination rate,[2]; 1·10^−8% solution,94.2%
same,Germination energy,[2]; 1·10^−9% solution,90.0%
same,Germination rate,[2]; 1·10^−9% solution,92.3%
same,Germination energy,[2]; 1·10^−10% solution,85.8%
same,Germination rate,[2]; 1·10^−10% solution,88.3%
same,Germination energy,[2]; 1·10^−11% solution,82.3%
same,Germination rate,[2]; 1·10^−11% solution,85.0%
same,Germination energy,[2]; 1·10^−12% solution,78.8%
same,Germination rate,[2]; 1·10^−12% solution,81.7%
same,Germination energy,[2]; [4],87.7%
same,Germination rate,[2]; [4],97.0%
same,"Germination energy, %",rice (Diamant variety); [5],88.0%
same,"Germination rate, %",rice (Diamant variety); [5],96.0%
same,Germination energy,rice (Diamant variety); 1·10^−6% solution,81.7%
same,Germination rate,rice (Diamant variety); 1·10^−6% solution,88.3%
same,Germination energy,rice (Diamant variety); 1·10^−7% solution,84.3%
same,Germination rate,rice (Diamant variety); 1·10^−7% solution,90.0%
same,Germination energy,rice (Diamant variety); 1·10^−8% solution,85.7%
same,Germination rate,rice (Diamant variety); 1·10^−8% solution,92.0%
same,Germination energy,rice (Diamant variety); 1·10^−9% solution,87.7%
same,Germination rate,rice (Diamant variety); 1·10^−9% solution,94.0%
same,Germination energy,rice (Diamant variety); 1·10^−10% solution,84.7%
same,Germination rate,rice (Diamant variety); 1·10^−10% solution,96.7%
same,Germination energy,"rice (Diamant variety); 1·10^−10% solution, listed as Cu",88.7%
same,Germination energy,rice (Diamant variety); 1·10^−11% solution,85.7%
same,Germination rate,rice (Diamant variety); 1·10^−11% solution,94.3%
same,Germination energy,rice (Diamant variety); 1·10^−12% solution,82.0%
same,Germination rate,rice (Diamant variety); 1·10^−12% solution,87.7%
same,Germination energy,rice (Diamant variety); [4],88.0%
same,Germination rate,rice (Diamant variety); [4],96.0%
